According to patent US4771055A, “7-[[3-(aminomethyl)-3-alkyl]-1-pyrrolidinyl]-quinoline-carboxylic acids” (Warner-Lambert Company, priority 1987, dated 1988):
In brackets after ≈: the same amount, converted by molar mass. Like-named read-outs stand apart in the source and are kept apart here.

Tests used:
S. pyog. = assay: Acute mouse protection test (PD50); assay type: in vivo; conditions: mice, read-out: Protective Dose 50% PD50
Description: (§1) The advantage of the compounds of the present invention has been observed when tested orally and compared to a standard quinolone where the 7-position contains a corresponding 3-aminomethylpyrrolidinyl group without the additional 3-alkyl or cycloalkyl substituent.
(§2) Therapeutic activities of the compounds were compared to acute mouse protection tests in which 18- to 22-g female Charles River CD-1 mice were used. Oral or subcutaneous doses in twofold rising incremental series were administered concurrently with bacterial challenge. Challenges were accomplished by the intraperitoneal injection of an estimated 100 medial lethal doses in 0.5 ml volumes of 5% hog gastric mucin or tryptic soy broth. Generally, >90% of the untreated controls died within 48 to 72 hours. Final survival percentages, obtained after four to seven days of observation among groups of 8 to 16 mice, were pooled and used to estimate median protective doses (PD50) by the log-probit method. Ideally a PO/SC ratio for a therapeutically relevant antibacterial should be ≤5. Table 2 indicates the improvement in PO/SC ratio.

P. aerug. = assay: Acute mouse protection test (PD50); assay type: in vivo; conditions: mice, read-out: Protective Dose 50% PD50
Description: as §1, §2

S. aureus = assay: Acute mouse protection test (PD50); assay type: in vivo; conditions: Staphylococcus aureus, mice, read-out: Protective Dose 50% PD50
Description: as §1, §2

E. coli = assay: Acute mouse protection test (PD50); assay type: in vivo; conditions: Escherichia coli, mice, read-out: Protective Dose 50% PD50
Description: as §1, §2

[1] = test system: gram-positive and -negative bacteria; assay: In vitro antibacterial activity, microtitration dilution method (overall); assay type: cell-based; conditions: comparison with Compound A
Text: (§3) The compounds of the invention display potent antibacterial activity against both gram-positive and -negative bacteria when tested by the microtitration dilution method as described in Heifetz, et al, Antimicr. Agents & Chemoth., 6, 124 (1974), which is incorporated herein by reference.

Escherichia coli Vogel = assay: In vitro antibacterial activity, MIC, microtitration dilution method; assay type: cell-based; conditions: read-out: Minimal Inhibitory Concentration MIC
Text: as §3

[2] = test system: Pseudomonas aeruginosa UI-18; assay: as above; assay type: cell-based; conditions: UI18, read-out: Minimal Inhibitory Concentration MIC
Text: as §3

[3] = test system: Streptococcus faecalis MGH-2; assay: as above; assay type: cell-based; conditions: Enterococcus faecalis, MGH2, read-out: Minimal Inhibitory Concentration MIC
Text: as §3

[4] = test system: Enterobacter cloacae MA 2646; assay: as above; assay type: cell-based; conditions: MA2646, read-out: Minimal Inhibitory Concentration MIC
Text: as §3

[5] = test system: Staphylococcus aureus UC-76; assay: as above; assay type: cell-based; conditions: UC76, read-out: Minimal Inhibitory Concentration MIC
Text: as §3

[6] = test system: Streptococcus pyogenes C-203; assay: as above; assay type: cell-based; conditions: C203, read-out: Minimal Inhibitory Concentration MIC
Text: as §3

[7] = test system: Klebsiella pneumoniae MGH-2; assay: as above; assay type: cell-based; conditions: MGH2, read-out: Minimal Inhibitory Concentration MIC
Text: as §3

Proteus rettgeri M 1771 = assay: as above; assay type: cell-based; conditions: Providencia rettgeri, M1771, read-out: Minimal Inhibitory Concentration MIC
Text: as §3

[8] = test system: Staphylococcus aureus H 228; assay: as above; assay type: cell-based; conditions: H228, read-out: Minimal Inhibitory Concentration MIC
Text: as §3

[9] = test system: Streptococcus pneumoniae SV-1; assay: as above; assay type: cell-based; conditions: SV1, read-out: Minimal Inhibitory Concentration MIC
Text: as §3

[10] = test system: E. coli, P. aerug., S. aureus, S. pyog.; assay: Acute mouse protection test, oral versus subcutaneous activity over all organisms; assay type: in vivo, mice; conditions: for PO/SC Ratio: ratio of PD50 PO to PD50 SC over the four organisms, mice
Description: as §1, §2

SMILES	ED50 (S. pyog.; PO) [mg/kg]	ED50 (S. pyog.; SC) [mg/kg]	ED50 (P. aerug.; PO) [mg/kg]	ED50 (P. aerug.; SC) [mg/kg]	ED50 (S. aureus; PO) [mg/kg]	ED50 (S. aureus; SC) [mg/kg]	ED50 (E. coli; PO) [mg/kg]	ED50 (E. coli; SC) [mg/kg]	MIC (Escherichia coli Vogel) [µg/mL]	MIC [2] [µg/mL]	MIC [3] [µg/mL]	MIC [4] [µg/mL]	MIC [5] [µg/mL]	MIC [6] [µg/mL]	MIC [7] [µg/mL]	MIC (Proteus rettgeri M 1771) [µg/mL]	MIC [8] [µg/mL]	MIC [9] [µg/mL]	PO/SC Ratio [10]	other results
CC1(CN)CCN(c2c(F)cc3c(=O)c(C(=O)O)cn(C4CC4)c3c2F)C1 (stereo not shown) [Example 1, 7-[[3-(Aminomethyl)-3-methyl]-1-pyrrolidinyl]-1-cyclopropyl-6,8-difluoro-1,4-dihydro-4-oxo-3-quinolinecarboxylic acid]	9	3	38	18	5	2	2	1	0.05 (≈ 0.132 µM)	0.4 (≈ 1.06 µM)	0.013 (≈ 0.0344 µM)	0.025 (≈ 0.0662 µM)	≤ 0.003	0.025 (≈ 0.0662 µM)	0.1 (≈ 0.265 µM)	0.2 (≈ 0.53 µM)	0.013 (≈ 0.0344 µM)	0.006 (≈ 0.0159 µM)	≤ 3	in vitro activity compared to Compound A [1]: comparable in vitro activity; oral activity in mice compared to Compound A ([10]; PD50, mouse protection, comparison with Compound A): greater oral activity in mice
CC1(CN)CCN(c2nc3c(cc2F)c(=O)c(C(=O)O)cn3C2CC2)C1 (stereo not shown) [Example 3, 7-[[3-(Aminomethyl)-3-methyl]-1-pyrrolidinyl]-1-cyclopropyl-6-fluoro-1,4-dihydro-4-oxo-1,8-naphthyridine-3-carboxylic acid]									0.4 (≈ 1.11 µM)	0.8 (≈ 2.22 µM)	0.05 (≈ 0.139 µM)	0.1 (≈ 0.277 µM)	0.013 (≈ 0.0361 µM)	0.05 (≈ 0.139 µM)	0.2 (≈ 0.555 µM)	0.8 (≈ 2.22 µM)	0.05 (≈ 0.139 µM)	0.025 (≈ 0.0694 µM)		
CC1(CN)CCN(c2c(F)c(N)c3c(=O)c(C(=O)O)cn(C4CC4)c3c2F)C1 (stereo not shown) [Example 2, 5-Amino-7-[[3-(aminomethyl)-3-methyl]-1-pyrrolidinyl]-1-cyclopropyl-6,8-difluoro-1,4-dihydro-4-oxo-3-quinolinecarboxylic acid]									0.1 (≈ 0.255 µM)	0.8 (≈ 2.04 µM)	0.025 (≈ 0.0637 µM)	0.1 (≈ 0.255 µM)	≤ 0.003	0.013 (≈ 0.0331 µM)	0.1 (≈ 0.255 µM)	0.4 (≈ 1.02 µM)	0.013 (≈ 0.0331 µM)	≤ 0.003		
CC1(CN)CCN(c2c(F)cc3c(=O)c(C(=O)O)cn(C4CC4)c3c2Cl)C1 (stereo not shown) [Example 4, 7-[3-(Aminomethyl)-3-methyl-1-pyrrolidinyl]-8-chloro-1-cyclopropyl-6-fluoro-1,4-dihydro-4-oxo-3-quinolinecarboxylic acid]									0.025 (≈ 0.0635 µM)	0.2 (≈ 0.508 µM)	0.013 (≈ 0.033 µM)	0.05 (≈ 0.127 µM)	≤ 0.003	0.013 (≈ 0.033 µM)	0.05 (≈ 0.127 µM)	0.1 (≈ 0.254 µM)	0.013 (≈ 0.033 µM)	≤ 0.003		
NCC1CCN(c2c(F)cc3c(=O)c(C(=O)O)cn(C4CC4)c3c2F)C1 (stereo not shown) [Compound A, 7-[3-(aminomethyl)-1-pyrrolidinyl]-1-cyclopropyl-6,8-difluoro-1,4-dihydro-4-oxo-3-quinolinecarboxylic acid, reference compound]	4	0.4	> 100	3	10	1	13	1	0.2 (≈ 0.55 µM)	0.8 (≈ 2.2 µM)	0.1 (≈ 0.275 µM)	0.8 (≈ 2.2 µM)	0.013 (≈ 0.0358 µM)	0.012 (≈ 0.033 µM)	0.4 (≈ 1.1 µM)	0.8 (≈ 2.2 µM)	0.1 (≈ 0.275 µM)	0.012 (≈ 0.033 µM)	≥ 10	
